Data published in paper PMC4564171 (PLoS ONE, 2015).

B1: pvirB FP probe (dsDNA)
DNA 1: AGAATATTATTCTTTTATCCAATAAAGATAAATTGCATCAATCCAGCTATTAAAATAGTA
DNA 2: TACTATTTTAATAGCTGGATTGATGCAATTTATCTTTATTGGATAAAAGAATAATATTCT
B2: pScram FP probe (dsDNA)
DNA 1: TAAGTCCTAAATGGAAATTAAATTACGTAATTCACAAATATAGTATGATCATTTATATCA
DNA 2: TGATATAAATGATCATACTATATTTGTGAATTACGTAATTTAATTTCCATTTAGGACTTA
B3: pvirB EMSA probe (dsDNA)
DNA 1: GTGCCCTGGTCTGG
DNA 2: B1 DNA 1
DNA 3: TACTATTTTAATAGCTGGATTGATGCAATTTATCTTTATTGGATAAAAGAATAATATTCTCCAGACCAGGGCAC
B4: pScram EMSA probe (dsDNA)
DNA 1: GTGCCCTGGTCTGG
DNA 2: B2 DNA 1
DNA 3: TGATATAAATGATCATACTATATTTGTGAATTACGTAATTTAATTTCCATTTAGGACTTACCAGACCAGGGCAC

Legend:
[1] = test system: 10 bp pvirB 51-60 FID (DNA, duplex) TAAAATAGTA/TACTATTTTA; assay: fluorescent intercalator displacement (ethidium bromide); settings: 0.1 M NaCl; 0.1 M Tris-HCl pH 8.0, room temperature; 7.5 μM ethidium; 1.5 μM DNA; highest tested 100 μM
[2] = test system: 60 bp pvirB FID (DNA, duplex) AGAATATTATTCTTTTATCCAATAAAGATAAATTGCATCAATCCAGCTATTAAAATAGTA/TACTATTTTAATAGCTGGATTGATGCAATTTATCTTTATTGGATAAAAGAATAATATTCT; assay: as above; settings: 0.1 M NaCl; 0.1 M Tris-HCl pH 8.0, room temperature; 45 μM ethidium; 1.5 μM DNA; highest tested 100 μM
[3] = target: T1, MalE-VirF binding to the pvirB DNA probe (Shigella flexneri, UniProt P0A2T1); assay: Fluorescence polarization (FP) assay, inhibition of MalE-VirF binding to the pvirB DNA probe; settings: read-out: % Inhibition at 100 μM
T1 construct: pMALvirF was constructed by cloning the virF gene into the vector, pMAL-c2x; made in house; host or cells: Shigella flexneri BS103 (pBAD202-MALvirF); initial preparations in E. coli KS1000 (pMALvirF)
Protocol: The FP assays were conducted in duplicate in black, half-area, 96-well plates (Corning, Twerksbury, MA). First, 30 μL of 5’-Fluoroscein-pvirB DNA probe working standard was added to appropriate wells of the microplate. The pvirB DNA working standard was in TE/NaCl buffer (see above) supplemented with BSA (0.07 mg/mL) and salmon sperm DNA (0.7 mg/mL). Next, 30 μL of varying concentrations of MalE-VirF in amylose resin elution buffer (see above) was added to appropriate wells of the microplate. The final concentration of pvirB DNA was either 50 nM (for test wells) or none (for blank wells) and the final concentrations of MalE-VirF ranged from 45 μM to 0.12 μM (for test wells) or none (for control wells). For each concentration of MalE-VirF tested, a blank well was also set up that included all reagents except pvirB DNA. The microplate was then incubated for 20 minutes at 37°C and anisotropy was determined using a SpectraMax M5 plate reader (Molecular Devices, Sunnyvale, CA). Data was acquired using an excitation wavelength equal to 490 nm and an emission wavelength equal to 520 nm. To determine anisotropy the following equation was used: Anisotropy=F∥-G^*F⊥/F∥+2^*G^*F⊥^*1000 where: Fǁ = fluorescence intensity parallel to excitation source after blanking, F┴ = fluorescence intensity perpendicular to excitation source after blanking, and G = G-factor (correction for polarization bias of the detection system). After anisotropy was determined, data were plotted using GraphPad Prism (La Jolla, Ca) and fit to the following equation: […] where Y = specific binding, KD = dissociation constant, BMAX = maximum binding, X = MalE-VirF concentration, and b = y-intercept.
The FP protocol listed above was adapted to determine the IC50 of the small molecule hit compounds. Compounds (ranging from 200 μM to 3.1 μM) or DMSO for controls (1% final concentration) were added to the pvirB DNA probe working standard prior to addition to the microplates. For IC50 determination, the MalE-VirF and pvirB DNA probe concentrations were held constant at 20 μM and 50 nM, respectively. Positive controls were established to determine 100% VirF inhibition (no MalE-VirF present, 50 nM pvirB DNA probe) and negative controls were set up to determine no VirF inhibition (1% DMSO, 20 μM MalE-VirF, and 50 nM pvirB DNA probe). Once again blanks were set up to include all reagents, except pvirB DNA probe. All reactions were run in duplicate. Anisotropy was calculated as listed above and data were plotted using GraphPad Prism then fit to the following equation: Y=Bottom+(Top-Bottom)/(1+10^(X-logIC50)) where: Y = anisotropy, X = log of compound concentration (M), Top and Bottom = plateaus in anisotropy units, and LogIC50 = log of the concentration that inhibits 50% of VirF binding. In the presence of the compounds (no VirF), a small increase (~6%) in the DNA anisotropy was observed.
The FP protocol used for IC50 determination was adapted to test a library of small molecule inhibitors of VirF. All steps were identical to the above protocol except compounds were tested at only 100 μM final concentration and positive control samples included 100 μM of compound. Once again blanks were set up to include all reagents, except pvirB DNA probe, and all reactions were run in duplicate. Anisotropy was calculated as listed above, and %inhibition was calculated as follows: %inhibition=rneg-rtest/rneg^*100 where: rneg = average anisotropy for negative controls and rtest = average anisotropy in presence of compound. Note: All rneg and rtest values were normalized to positive control values.

[4] = test system: spread of an active S. flexneri infection; settings: at concentrations at or below their IC50s in the reporter assay; cited from earlier work
[5] = target: T2, MalE-VirF binding to the 5'Cy5-pvirB DNA probe (Shigella flexneri, UniProt P0A2T1); assay: Electrophoretic mobility shift assay (EMSA) of MalE-VirF binding to pvirB DNA probe; settings: compound 100 μM; MalE-VirF 1 μM; probe 0.25 μM
T2 construct: pMALvirF was constructed by cloning the virF gene into the vector, pMAL-c2x; made in house; host or cells: Shigella flexneri BS103 (pBAD202-MALvirF); initial preparations in E. coli KS1000 (pMALvirF)
Protocol: Reactions for the EMSAs were incubated in a 37°C water bath for 15 minutes. Reactions (15 μL total volume) were composed of 6 μL pvirB EMSA DNA probe (0.25 μM), 6 μL of either MalE-VirF (1.0 μM) or native gel loading buffer (Tris-HCl 0.3 M, 50% glycerol, 0.05% bromophenol blue, pH 7.0), 1 μL of salmon sperm DNA (0.7 mg/mL, Invitrogen), 0.5 μL BSA (0.07 mg/mL), and 1.5 μL of either DMSO or compound (100 μM). A 6% native polyacrylamide gel (29:1 acrylamide to bis-acrylamide ratio) was made with 0.25X TBE buffer (22 mM Tris Base, 22 mM boric acid, 0.5 mM EDTA, pH 9.5) for the EMSA. The gel was electrophoresed for 1 hour at 150 V in 0.25X TBE buffer at 4°C before samples were loaded. After the reaction solutions (12 μL) were loaded onto the gel, the gel was electrophoresed for an additional hour at 150 V and 4°C. The gel was then visualized using FluorChem M gel imager (Protein Simple, Santa Clara, CA) with a 607 nm excitation wavelength and a 710 nm emission filter.

[6] = target: T3, MalE-VirF (Shigella flexneri, UniProt P0A2T1 1-262); assay: fluorescence anisotropy; settings: protein: recombinant; tags: N-terminal MalE (MBP) fusion, not cleaved; label: 5'-fluorescein on top strand; blunt
[7] = target: T3, MalE-VirF; assay: fluorescence anisotropy; 20 uM MalE-VirF, 50 nM DNA (r = 39 alone, 36 with protein); settings: protein: recombinant; tags: N-terminal MalE (MBP) fusion, not cleaved; label: 5'-fluorescein on top strand; blunt
[8] = target: T3, MalE-VirF; assay: EMSA; 1 uM MalE-VirF, 0.25 uM DNA; settings: protein: recombinant, tags: N-terminal MalE (MBP) fusion, not cleaved, label: 5'-Cy5 on LUEGO strand (S5), blunt, three strands

T1 sequence (P0A2T1 whole entry, looked up): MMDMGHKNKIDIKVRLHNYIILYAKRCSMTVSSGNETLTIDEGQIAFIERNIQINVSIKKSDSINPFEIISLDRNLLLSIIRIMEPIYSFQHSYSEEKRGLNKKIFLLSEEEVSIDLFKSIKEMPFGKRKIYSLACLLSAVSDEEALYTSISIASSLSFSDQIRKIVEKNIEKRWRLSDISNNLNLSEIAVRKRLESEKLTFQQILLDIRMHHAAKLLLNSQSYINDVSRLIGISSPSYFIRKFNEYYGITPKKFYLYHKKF
T3 sequence (P0A2T1 whole entry, the tested form may be a part): as the sequence (P0A2T1 whole entry, looked up) above
T2 sequence (P0A2T1 whole entry, looked up): as above

Molecule	inhibition at 100 µM [3] [%]	other results
CNCCOc1nc(-c2ccccc2)nc2c1oc1ccccc12		%fluorescence [1]: 95 ± 1%; %fluorescence [2]: 93 ± 3%
CCN(CC)CCNc1nc(-c2ccccc2)nc2c1oc1ccccc12 [compound 048373]	15 ± 0.4	
CCN(CC)c1cccc(Oc2nc(-c3ccccc3)nc3c2oc2ccccc23)c1 [compound 9660235]	5 ± 0.2	
c1ccc(-c2nc(Oc3cccnc3)c3oc4ccccc4c3n2)cc1 [compound 9660232]	17 ± 2	
CN1CCN(c2nc(-c3ccccc3)nc3c2oc2ccccc23)CC1 [compound 078044]	42 ± 0.4	
CCN(CC)CCOc1nc(-c2ccccc2)nc2c1oc1ccccc12 [compound 587109]	43 ± 1	
c1ccc(-c2nc(N3CCOCC3)c3oc4ccccc4c3n2)cc1 [compound 9111063]	-5 ± 0.1	
c1ccc(-c2nc(N3CCN(c4ccccc4)CC3)c3oc4ccccc4c3n2)cc1 [compound 568180]	2 ± 0.1	
CCN(CC)CCCOc1nc(-c2ccccc2)nc2c1oc1ccccc12 [compound 598089]	68	
O=c1[nH]c(-c2ccc(C(F)(F)F)cc2)nc2c1oc1ccccc12 [compound 765345]	1 ± 0.1	
CCN(CC)CCOc1nc(C)nc2c1oc1ccccc12 [compound 050908]	18 ± 0.4	
CCc1nc(OCCN(C)C)c2oc3ccccc3c2n1 [compound 587469]	16 ± 0.4	
Clc1ccc2nc(COc3ccccc3)[nH]c2c1 [compound 153578]		Inhibition of the spread of an active S. flexneri infection [4]: approximately 75%; Effect on MalE-VirF binding to the pvirB DNA probe (EMSA) [5]: little to no effect on DNA binding
B1		Kd [6]: 2800 ± 1000 nM
B2		binding result [7]: no binding
B3		binding result ([8]; LUEGO (S5) and top (S1) abut with a nick on bottom S2 (74 nt)): binds
B4		binding result ([8]; LUEGO (S5) and top (S3) abut with a nick on bottom S4 (74 nt)): no binding
